Source: patent publication US20150274719A1, “AMINO-SUBSTITUTED IMIDAZO[1,2-A]PYRIDINECARBOXAMIDES AND THEIR USE” (BAYER PHARMA AKTIENGESELLSCHAFT, priority 2012, published 2015)
Where a name gives a salt, the structure may show the parent alone.

What was measured:
[1] = Determination of pharmacokinetic parameters following intravenous and oral administration (rats); assay type: in vivo, male Wistar rats; conditions: intravenous administration in rats
Method: B-6. Determination of Pharmacokinetic Parameters Following Intravenous and Oral Administration
The pharmacokinetic parameters of the compounds according to the invention are determined in male CD-1 mice, male Wistar rats and female beagles. Intravenous administration in the case of mice and rats is carried out by means of a species-specific plasma/DMSO formulation, and in the case of dogs by means of a water/PEG400/ethanol formulation. In all species, oral administration of the dissolved substance is performed via gavage, based on a water/PEG400/ethanol formulation. The taking of blood from rats is simplified by inserting a silicone catheter into the right Vena jugularis externa prior to substance administration. The operation is carried out at least one day prior to the experiment with […] and administration of an analgesic (atropin/Rimadyl (3/1) 0.1 ml s.c.). The blood is taken (generally more than 10 time points) within a time window including terminal time points of at least 24 to a maximum of 72 hours after substance administration. When the blood is taken, it is passed into heparinised tubes. Then the blood plasma is obtained by centrifugation and is optionally stored at −20° C. until further processing.
An internal standard (which may also be a chemically unrelated substance) is added to the samples of the compounds according to the invention, calibration samples and qualifiers, and there follows protein precipitation by means of excess acetone. Addition of a buffer solution matched to the LC conditions, and subsequent vortexing, is followed by centrifugation at 1000 g. The supernatant is analysed by LC-MS/MS using C18 reversed-phase columns and variable mobile phase mixtures. The substances are quantified via the peak heights or areas from extracted ion chromatograms of specific selected ion monitoring experiments.
The plasma concentration/time plots determined are used to calculate the pharmacokinetic parameters such as AUC, Cmax, t1/2 (terminal half life), F (bioavailability), MRT (mean residence time) and CL (clearance), using a validated pharmacokinetic calculation program.
Since the substance quantification is carried out in plasma, it is necessary to determine the blood/plasma distribution of the substance in order to be able to adjust the pharmacokinetic parameters correspondingly. For this purpose, a defined amount of substance is incubated in heparinized whole blood of the species in question in a rocking roller mixture for 20 min. After centrifugation at 1000 g, the plasma concentration is measured (by means of LC-MS/MS; see above) and determined by calculating the ratio of the Cblood/Cplasma value.

[2] = molecular target: T1, recombinant guanylate cyclase reporter cell line (Rattus norvegicus, UniProt P19686+P20595); test: Action on recombinant guanylate cyclase reporter cell line; assay type: cell-based; conditions: in some cases mean values from individual determinations
T1 construct: expressed in transfected cells; host or cells: recombinant reporter cell line
T1 sequence (P19686 1-690): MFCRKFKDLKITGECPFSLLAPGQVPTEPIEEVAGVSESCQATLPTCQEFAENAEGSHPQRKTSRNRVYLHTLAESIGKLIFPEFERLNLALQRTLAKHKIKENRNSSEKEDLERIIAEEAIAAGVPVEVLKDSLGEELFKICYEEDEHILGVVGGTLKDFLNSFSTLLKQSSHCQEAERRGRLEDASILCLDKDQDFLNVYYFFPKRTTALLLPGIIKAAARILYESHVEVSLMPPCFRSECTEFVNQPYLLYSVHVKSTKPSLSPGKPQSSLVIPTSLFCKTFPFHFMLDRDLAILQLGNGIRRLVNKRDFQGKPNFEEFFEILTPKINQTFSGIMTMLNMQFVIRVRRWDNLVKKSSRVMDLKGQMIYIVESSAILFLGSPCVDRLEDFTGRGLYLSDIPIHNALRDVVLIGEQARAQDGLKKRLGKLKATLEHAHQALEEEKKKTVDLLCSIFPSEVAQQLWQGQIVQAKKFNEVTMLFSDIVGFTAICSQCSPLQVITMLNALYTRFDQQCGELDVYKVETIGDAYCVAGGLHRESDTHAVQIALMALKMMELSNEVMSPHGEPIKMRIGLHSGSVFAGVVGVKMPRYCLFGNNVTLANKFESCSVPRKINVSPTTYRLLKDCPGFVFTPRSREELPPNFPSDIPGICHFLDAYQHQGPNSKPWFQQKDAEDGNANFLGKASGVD
T1 sequence (P20595 1-619): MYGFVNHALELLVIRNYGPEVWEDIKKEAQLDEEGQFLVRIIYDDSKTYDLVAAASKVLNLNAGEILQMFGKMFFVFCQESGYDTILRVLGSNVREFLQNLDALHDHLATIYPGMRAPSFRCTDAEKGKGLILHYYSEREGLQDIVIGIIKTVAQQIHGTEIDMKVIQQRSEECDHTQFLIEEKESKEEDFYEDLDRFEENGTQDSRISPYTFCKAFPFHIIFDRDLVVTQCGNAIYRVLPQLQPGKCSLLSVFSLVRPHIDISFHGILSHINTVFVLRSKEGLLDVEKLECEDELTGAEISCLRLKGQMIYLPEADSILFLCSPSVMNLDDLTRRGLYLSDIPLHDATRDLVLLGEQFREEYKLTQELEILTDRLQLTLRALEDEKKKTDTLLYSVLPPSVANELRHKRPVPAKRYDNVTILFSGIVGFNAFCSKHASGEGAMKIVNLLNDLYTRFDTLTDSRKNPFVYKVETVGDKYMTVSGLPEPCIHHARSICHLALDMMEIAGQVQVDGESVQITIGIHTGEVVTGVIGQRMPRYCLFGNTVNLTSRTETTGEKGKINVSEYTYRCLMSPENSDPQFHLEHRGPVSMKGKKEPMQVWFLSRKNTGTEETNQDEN
Procedure, shortened: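 Compounds are tested on whole cells carrying a guanylate cyclase reporter construct. The lowest concentration giving an effect is recorded as the MEC.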

| Compound | MEC (minimal effective concentration) [2] | further results |
| --- | --- | --- |
| Cc1nc2c(OCc3c(F)cccc3F)cccn2c1C(=O)NC(CN)CCCC(F)(F)F (racemic) [Example 4, rac-N-(1-amino-6,6,6-trifluorohexan-2-yl)-8-[(2,6-difluorobenzyl)oxy]-2-methylimidazo[1,2-a]pyridine-3-carboxamide] |  | AUCnorm [1]: 0.58 kg·h/L; CLblood [1]: 27.8 mL/min/kg; half-life ([1]; male, Wistar, rat, plasma, iv): 5.2 h; MRT ([1]; male, Wistar, rat, plasma, iv, read-out: MRT): 6.7 h |
| Cc1nc2c(OCc3c(F)cccc3F)cccn2c1C(=O)NC1CC2CCCC(C1)N2C (stereo not drawn) [Example 90, 8-[(2,6-difluorobenzyl)oxy]-2-methyl-N-(9-methyl-9-azabicyclo[3.3.1]non-3-yl)imidazo[1,2-a]pyridine-3-carboxamide] | 0.10 µM |  |
| CCCC(C)(N)CNC(=O)c1c(C)nc2c(OCc3c(F)cccc3F)cc(Cl)cn12 (single isomer, unassigned; enantiomer a) [Example 245, ent-N-(2-Amino-2-methylpentyl)-6-chloro-8-[(2,6-difluorobenzyl)oxy]-2-methylimidazo[1,2-a]-pyridine-3-carboxamide (Enantiomer A)] | 0.10 µM |  |
| Cc1nc2c(OCc3c(F)cccc3F)cc(F)cn2c1C(=O)NCC(C)(C)N [Example 140, N-(2-Amino-2-methylpropyl)-8-[(2,6-difluorobenzyl)oxy]-6-fluoro-2-methylimidazo[1,2-a]-pyridine-3-carboxamide] | 1.00 µM |  |
| Cc1nc2c(OCc3c(F)cccc3F)cccn2c1C(=O)NCCN1CCS(=O)(=O)CC1 [Example 131, 8-[(2,6-difluorobenzyl)oxy]-N-[2-(1,1-dioxidothiomorpholin-4-yl)ethyl]-2-methylimidazo[1,2-a]pyridine-3-carboxamide] | 3.00 µM |  |
| Cc1cc(OCc2c(F)cccc2F)c2nc(C)c(C(=O)NCC(C)(N)C(F)(F)F)n2c1 (racemic) [Example 239, rac-N-(2-Amino-3,3,3-trifluoro-2-methylpropyl)-8-[(2,6-difluorobenzyl)oxy]-2,6-dimethyl-imidazo[1,2-a]pyridine-3-carboxamide] | 0.30 µM |  |
| Cc1nc2c(OCc3c(F)cccc3F)cccn2c1C(=O)NC(CN)c1ccc(F)cc1 (racemic) [Example 9, rac-N-[2-Amino-1-(4-fluorophenyl)ethyl]-8-[(2,6-difluorobenzyl)oxy]-2-methylimidazo[1,2-a]-pyridine-3-carboxamide] | 0.30 µM |  |
| Cc1nc2c(OCc3c(F)cccc3F)cc(Cl)cn2c1C(=O)NCC(C)(N)CC(C)C (single isomer, unassigned) [Example 226, ent-N-(2-Amino-2,4-dimethylpentyl)-6-chloro-8-[(2,6-difluorobenzyl)oxy]-2-methylimidazo[1,2-a]pyridine-3-carboxamide] | 0.10 µM |  |
| Cc1nc2c(OCc3c(F)cccc3F)cccn2c1C(=O)NC12CNCCC1C2 (single isomer, unassigned) [Example 184, ent-N-(3-Azabicyclo[4.1.0]hept-1-yl)-8-[(2,6-difluorobenzyl)oxy]-2-methylimidazo[1,2-a]pyridine-3-carboxamide] | 1.00 µM |  |
| Cc1nc2c(OCC3CCCCC3)cccn2c1C(=O)NC(CN)c1ccc(F)cc1F (stereo not drawn) [Example 45, ent-N-[2-Amino-1-(2,4-difluorophenyl)ethyl]-8-(cyclohexylmethoxy)-2-methylimidazo[1,2-a]-pyridine-3-carboxamide] | 1.00 µM |  |
| [2H]C([2H])(Oc1cccn2c(C(=O)NC(CN)c3ccc(F)c(F)c3)c(C)nc12)c1c(F)cccc1F (stereo not drawn) [Example 97, ent-N-[2-Amino-1-(3,4-difluorophenyl)ethyl]-8-{[(2,6-difluorophenyl)(^2H2)methyl]oxy}-2-methylimidazo[1,2-a]pyridine-3-carboxamide] | 0.10 µM |  |
| COCC(N)CNC(=O)c1c(C)nc2c(OCc3c(F)cccc3F)cccn12 (single isomer, unassigned; enantiomer a) [Example 247, ent-N-(2-Amino-3-methoxypropyl)-8-[(2,6-difluorobenzyl)oxy]-2-methylimidazo[1,2-a]pyridine-3-carboxamide (Enantiomer A)] | 3.00 µM |  |

More lines, main results first:

| MEC (minimal effective concentration) [2] | Compound | further results |
| --- | --- | --- |
| 0.30 µM | Cc1cc(OCc2c(F)cccc2F)c2nc(C)c(C(=O)N[C@H]3C[C@H]4CN(C)CCN4C3)n2c1 [Example 314, 8-[(2,6-Difluorobenzyl)oxy]-2,6-dimethyl-N-[(7S,8aS)-2-methyloctahydropyrrolo[1,2-a]pyrazin-7-yl]imidazo[1,2-a]pyridine-3-carboxamide] |  |
| 1.00 µM | COC(=O)c1cccc(C(N)CNC(=O)c2c(C)nc3c(OCc4c(F)cccc4F)cc(C)cn23)c1 (racemic) [Example 399, rac-Methyl 3-{1-amino-2-[({8-[(2,6-difluorobenzyl)oxy]-2,6-dimethylimidazo[1,2-a]pyridin-3-yl}carbonyl)amino]ethyl}benzoate] |  |
| 1.00 µM | CCOC(=O)c1cccc(C(CN)NC(=O)c2c(C)nc3c(OCc4c(F)cccc4F)cc(C)cn23)n1 (stereo not drawn) [Example 397] |  |
| 1.00 µM | Cc1cc(OCc2c(F)cccc2F)c2nc(C)c(C(=O)NCC3CN(Cc4ccccc4)CCO3)n2c1 (racemic) [Example 344, rac-N-[(4-benzylmorpholin-2-yl)methyl]-8-[(2,6-difluorobenzyl)oxy]-2,6-dimethylimidazo[1,2-a]pyridine-3-carboxamide] |  |
| 1.00 µM | Cc1cc(OCc2c(F)cccc2F)c2nc(C)c(C(=O)NCC(C)(N)COc3ccc(F)c(F)c3)n2c1 (racemic) [Example 350, rac-N-[2-amino-3-(3,4-difluorophenoxy)-2-methylpropyl]-8-[(2,6-difluorobenzyl)oxy]-2,6-dimethylimidazo[1,2-a]pyridine-3-carboxamide] |  |
| 0.30 µM | C#Cc1cc(OCc2c(F)cccc2F)c2nc(C)c(C(=O)NCC(C)(N)CCC)n2c1 (stereo not drawn) [Example 355, ent-N-(2-amino-2-methylpentyl)-8-[(2,6-difluorobenzyl)oxy]-6-ethynyl-2-methylimidazo[1,2-a]pyridine-3-carboxamide Formate] |  |
